In patent US10793563B2, “GCN2 inhibitors and uses thereof” (Merck Patent GmbH, priority 2018, dated 2020):

Target: GCN2 kinase (Homo sapiens (Human), UniProt Q9P2K8)
Test: GCN2 Enzyme Inhibition Assay (Transcreener ADP2 fluorescence polarization)
Format: biochemical
Details: 280 μM ATP, 200 μM (RS)7 peptide, 4 nM GCN2, 25° C.
Description: Compounds were screened for their ability to inhibit GCN2 kinase activity using a Transcreener® ADP^2 fluorescence polarization assay that detects ADP levels (BellBrook Labs, WI). Assays were carried out in a buffer consisting of 25 mM Tris-HCl (pH 7.5), 50 mM NaCl, 10 mM MgCl2 and 1 mM DTT. […] Assays were carried out at 25° C. in the presence of a (typical) final concentration of 4 nM GCN2 kinase. An assay buffer containing GCN2 kinase and (RS)7 was prepared. […] The plate was incubated for 10 minutes at 25° C. prior to the addition of 4.7 μL of ATP stock buffer to initiate the enzyme reaction. The reaction was allowed to proceed for 1 hour at 25° C., prior to the addition of 10 μL detection buffer (consisting of appropriate concentrations of ADP^2 antibody and ADP Alexa633 tracer in 1× stop and detect buffer as supplied by BellBrook Labs). […] Percentage inhibition of enzyme activity was then calculated at each compound dose. IC50 and Ki(app) (using known assay and kinetic parameters) values were calculated from percentage inhibition data using a non-linear, tight-binding algorithm. All data analysis was undertaken using the Screener® software package (Genedata, Switzerland).

Sequence of GCN2 kinase (Q9P2K8 whole entry): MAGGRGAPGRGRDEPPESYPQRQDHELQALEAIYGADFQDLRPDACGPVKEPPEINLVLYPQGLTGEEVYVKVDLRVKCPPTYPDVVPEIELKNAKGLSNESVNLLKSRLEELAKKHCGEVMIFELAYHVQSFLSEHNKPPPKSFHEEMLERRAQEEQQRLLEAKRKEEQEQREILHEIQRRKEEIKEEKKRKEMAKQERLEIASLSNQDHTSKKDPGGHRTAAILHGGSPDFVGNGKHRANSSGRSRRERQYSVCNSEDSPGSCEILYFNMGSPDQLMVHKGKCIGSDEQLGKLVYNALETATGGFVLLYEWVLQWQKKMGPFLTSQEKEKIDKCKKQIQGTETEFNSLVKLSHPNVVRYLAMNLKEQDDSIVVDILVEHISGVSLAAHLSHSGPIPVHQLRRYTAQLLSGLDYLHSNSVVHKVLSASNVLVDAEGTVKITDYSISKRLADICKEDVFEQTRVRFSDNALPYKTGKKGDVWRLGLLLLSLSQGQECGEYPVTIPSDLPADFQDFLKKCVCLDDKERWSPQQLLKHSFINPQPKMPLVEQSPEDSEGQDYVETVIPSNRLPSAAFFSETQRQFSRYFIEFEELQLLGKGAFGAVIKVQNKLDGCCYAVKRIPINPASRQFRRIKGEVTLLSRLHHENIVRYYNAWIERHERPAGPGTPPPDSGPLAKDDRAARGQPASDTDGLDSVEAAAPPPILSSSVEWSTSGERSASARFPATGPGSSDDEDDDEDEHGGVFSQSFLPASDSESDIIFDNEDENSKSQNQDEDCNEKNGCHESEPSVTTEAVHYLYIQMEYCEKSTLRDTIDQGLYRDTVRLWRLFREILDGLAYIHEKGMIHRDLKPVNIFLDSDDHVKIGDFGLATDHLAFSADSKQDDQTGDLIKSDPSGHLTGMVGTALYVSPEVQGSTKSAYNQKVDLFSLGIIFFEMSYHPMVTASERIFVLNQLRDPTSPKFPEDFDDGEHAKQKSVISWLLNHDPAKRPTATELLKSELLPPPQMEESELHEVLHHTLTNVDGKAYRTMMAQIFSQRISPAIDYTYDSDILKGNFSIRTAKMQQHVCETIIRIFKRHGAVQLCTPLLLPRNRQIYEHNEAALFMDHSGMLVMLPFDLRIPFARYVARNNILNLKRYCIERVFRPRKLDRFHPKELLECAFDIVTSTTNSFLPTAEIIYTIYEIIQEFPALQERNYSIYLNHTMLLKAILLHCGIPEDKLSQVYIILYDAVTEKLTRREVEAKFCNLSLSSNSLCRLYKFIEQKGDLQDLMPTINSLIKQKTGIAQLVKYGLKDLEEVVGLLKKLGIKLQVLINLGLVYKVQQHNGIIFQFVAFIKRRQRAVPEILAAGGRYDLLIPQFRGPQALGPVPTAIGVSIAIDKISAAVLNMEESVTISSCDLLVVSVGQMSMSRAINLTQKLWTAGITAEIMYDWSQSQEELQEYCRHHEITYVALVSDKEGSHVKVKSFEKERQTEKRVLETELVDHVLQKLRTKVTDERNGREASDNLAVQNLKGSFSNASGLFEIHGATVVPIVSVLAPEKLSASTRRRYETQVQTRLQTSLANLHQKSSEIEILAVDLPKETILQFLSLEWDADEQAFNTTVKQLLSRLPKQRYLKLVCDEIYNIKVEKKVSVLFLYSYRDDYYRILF

Row | IC50 | Structure (SMILES)
1 | 0.01 to 0.1 µM | Fc1ccc(CN2CCN(c3ccnc(-c4cnc5ccc(C(F)(F)F)cn45)n3)CC2c2cn[nH]c2)cc1 (centres unmarked) [I-457, 3-(4-(4-(4-fluorobenzyl)-3-(1H-pyrazol-4-yl)piperazin-1-yl)pyrimidin-2-yl)-6-(trifluoromethyl)imidazo[1,2-a]pyridine]
2 | 0.01 to 0.1 µM | CC1C(C(N)=O)NCCN1c1ccnc(-c2cnc3ccc(Cl)cn23)n1 (centres unmarked) [I-451, 4-(2-{6-chloroimidazo[1,2-a]pyridin-3-yl}pyrimidin-4-yl)-3-methylpiperazine-2-carboxamide]
3 | 0.1 to 1 µM | Cc1[nH]ncc1C1N[C@H](C)CN(c2nccc(-c3cnc4ccc(C(F)(F)F)cn34)n2)[C@@H]1C (stereo partly drawn) [I-173, 3-(2-((2R,5R)-2,5-dimethyl-3-(5-methyl-1H-pyrazol-4-yl)piperazin-1-yl)pyrimidin-4-yl)-6-(trifluoromethyl)imidazo[1,2-a]pyridine]
4 | 0.1 to 1 µM | COc1cc(C(=O)N2CCN(c3ccnc(-c4cnc5ccc(C(F)(F)F)cn45)n3)CC2c2cn[nH]c2)ccn1 (centres unmarked) [I-452, (2-(1H-pyrazol-4-yl)-4-(2-(6-(trifluoromethyl)imidazo[1,2-a]pyridin-3-yl)pyrimidin-4-yl)piperazin-1-yl)(2-methoxypyridin-4-yl)methanone]
5 | 0.1 to 1 µM | CS(=O)(=O)NCC1C[C@@H]2CC[C@H]1N(c1ccnc(-c3cnc4ccc(C(F)F)cn34)n1)C2 (stereo partly drawn) [I-394, N-(((1R,4S)-2-(2-(6-(difluoromethyl)imidazo[1,2-a]pyridin-3-yl)pyrimidin-4-yl)-2-azabicyclo[2.2.2]octan-6-yl)methyl)methanesulfonamide]
6 | 0.01 to 0.1 µM | Cc1noc([C@@H]2CN(c3ccnc(-c4cnc5ccc(C(F)F)cn45)n3)C[C@H](C)O2)n1 [I-498, (2S,6S)-4-(2-(6-(difluoromethyl)imidazo[1,2-a]pyridin-3-yl)pyrimidin-4-yl)-2-methyl-6-(3-methyl-1,2,4-oxadiazol-5-yl)morpholine]
7 | 0.1 to 1 µM | OCc1cn(C2CCCN(c3ccnc(-c4cnc5ccc(C(F)(F)F)cn45)n3)C2)nn1 (centres unmarked) [I-382, (1-(1-(2-(6-(trifluoromethyl)imidazo[1,2-a]pyridin-3-yl)pyrimidin-4-yl)piperidin-3-yl)-1H-1,2,3-triazol-4-yl)methanol]
8 | 0.01 to 0.1 µM | CC1C(C(N)=O)NCCN1c1ccnc(-c2cnc3ccc(C(F)F)cn23)n1 (centres unmarked) [I-378, 4-(2-(6-(difluoromethyl)imidazo[1,2-a]pyridin-3-yl)pyrimidin-4-yl)-3-methylpiperazine-2-carboxamide]
9 | 0.01 to 0.1 µM | C[C@H]1[C@@H](CNS(C)(=O)=O)NCCN1c1ccnc(-c2cnc3ccc(C(F)(F)F)cn23)n1 [I-436, N-(((2R,3 S)-3-methyl-4-(2-(6-(trifluoromethyl)imidazo[1,2-a]pyridin-3-yl)pyrimidin-4-yl)piperazin-2-yl)methyl)methanesulfonamide]
10 | 0.01 to 0.1 µM | Cc1nonc1C(=O)N1CCN(c2ccnc(-c3cnc4ccc(C(F)(F)F)cn34)n2)CC1c1cn[nH]c1 (centres unmarked) [I-518, (2-(1H-pyrazol-4-yl)-4-(2-(6-(trifluoromethyl)imidazo[1,2-a]pyridin-3-yl)pyrimidin-4-yl)piperazin-1-yl)(4-methyl-1,2,5-oxadiazol-3-yl)methanone]
11 | < 0.01 µM | FC(F)(F)c1ccc2ncc(-c3nccc(N4CCN(CC5COC5)C(c5cn[nH]c5)C4)n3)n2c1 (centres unmarked) [I-374, 3-(4-(4-(oxetan-3-ylmethyl)-3-(1H-pyrazol-4-yl)piperazin-1-yl)pyrimidin-2-yl)-6-(trifluoromethyl)imidazo[1,2-a]pyridine]
12 | 0.01 to 0.1 µM | C[C@@H]1C[C@@H](c2cn[nH]c2)CN(c2nccc(-c3cnc4ccc(Cl)cn34)n2)C1 (stereo in doubt) [I-195, 6-chloro-3-(2-((3R,5S)-3-methyl-5-(1H-pyrazol-4-yl)piperidin-1-yl)pyrimidin-4-yl)imidazo[1,2-a]pyridine]
13 | 0.1 to 1 µM | O=C(N[C@H]1C[C@H](O)CN(c2ccnc(-c3cnc4ccc(C(F)(F)F)cn34)n2)C1)c1cn[nH]c1 [I-257, N-((3S,5S)-5-hydroxy-1-(2-(6-(trifluoromethyl)imidazo[1,2-a]pyridin-3-yl)pyrimidin-4-yl)piperidin-3-yl)-1H-pyrazole-4-carboxamide]
14 | 0.01 to 0.1 µM | O=C(O)CC1CCCN(c2ccnc(-c3cnc4ccc(C(F)(F)F)cn34)n2)C1 (centres unmarked) [I-165, 2-(1-(2-(6-(trifluoromethyl)imidazo[1,2-a]pyridin-3-yl)pyrimidin-4-yl)piperidin-3-yl)acetic acid]
15 | 0.01 to 0.1 µM | CC1CN(c2ccnc(-c3cnc4ccc(C(F)(F)F)cn34)n2)CCC1n1cccn1 (centres unmarked) [I-379, 3-(4-(3-methyl-4-(1H-pyrazol-1-yl)piperidin-1-yl)pyrimidin-2-yl)-6-(trifluoromethyl)imidazo[1,2-a]pyridine]
16 | < 0.01 µM | FC(F)(F)c1ccc2ncc(-c3ccnc(N4CCN(C[C@H]5CCCOC5)[C@@H](c5cn[nH]c5)C4)n3)n2c1 [I-542, 3-(2-((S)-3-(1H-pyrazol-4-yl)-4-(((R)-tetrahydro-2H-pyran-3-yl)methyl)piperazin-1-yl)pyrimidin-4-yl)-6-(trifluoromethyl)imidazo[1,2-a]pyridine]
17 | 0.1 to 1 µM | C[C@@H]1C[C@H](N=S(C)(C)=O)CN(c2ccnc(-c3cnc4ccc(N5CC(F)C5)cn34)n2)C1 [I-330, (((3 S,5R)-1-(2-(6-(3-fluoroazetidin-1-yl)imidazo[1,2-a]pyridin-3-yl)pyrimidin-4-yl)-5-methylpiperidin-3-yl)imino)dimethyl-λ6-sulfanone]
18 | 0.1 to 1 µM | CN(C)C(=O)COCC1CN(c2ccnc(-c3cnc4ccc(C(F)(F)F)cn34)n2)CC(C)(C)O1 (centres unmarked) [I-305, 2-((6,6-dimethyl-4-(2-(6-(trifluoromethyl)imidazo[1,2-a]pyridin-3-yl)pyrimidin-4-yl)morpholin-2-yl)methoxy)-N,N-dimethylacetamide]
19 | 0.01 to 0.1 µM | CC(=O)N1CCN(c2ccnc(-c3cnc4ccc(C(F)(F)F)cn34)n2)CC1(C)C [I-336, 1-(2,2-dimethyl-4-(2-(6-(trifluoromethyl)imidazo[1,2-a]pyridin-3-yl)pyrimidin-4-yl)piperazin-1-yl)ethan-1-one]
20 | 0.1 to 1 µM | Cc1nn(C)cc1[C@@H]1C[C@H](C)CN(c2nccc(-c3cnc4ccc(C(F)(F)F)cn34)n2)C1 [I-141, 3-(2-((3S,5S)-3-(1,3-dimethyl-1H-pyrazol-4-yl)-5-methylpiperidin-1-yl)pyrimidin-4-yl)-6-(trifluoromethyl)imidazo[1,2-a]pyridine]
21 | 0.1 to 1 µM | Cc1nn(C)cc1[C@H]1C[C@H](C)CN(c2nccc(-c3cnc4ccc(C(F)(F)F)cn34)n2)C1 [I-139, 3-(2-((3R,5S)-3-(1,3-dimethyl-1H-pyrazol-4-yl)-5-methylpiperidin-1-yl)pyrimidin-4-yl)-6-(trifluoromethyl)imidazo[1,2-a]pyridine]

Same assay, conditions: Ki(app); 280 μM ATP, 200 μM (RS)7 peptide, 4 nM GCN2, 25° C.

Row | Ki | Structure (SMILES)
22 | 0.01 to 0.1 µM | C[C@@H]1CN(c2ccnc(-c3cnc4ccc(C(F)(F)F)cn34)n2)[C@H](C)[C@H](c2cn[nH]c2)N1 (stereo in doubt) [I-38, 3-[4-[2,5-dimethyl-3-(1H-pyrazol-4-yl)piperazin-1-yl]pyrimidin-2-yl]-6-(trifluoromethyl)imidazo[1,2-a]pyridine]
23 | 0.01 to 0.1 µM | Cc1nnc([C@@H]2CN(c3ccnc(-c4cnc5ccc(Cl)cn45)n3)C[C@H](C)O2)o1 (relative stereo) [I-95, cis-4-(2-{6-chloroimidazo[1,2-a]pyridin-3-yl}pyrimidin-4-yl)-2-methyl-6-(5-methyl-1,3,4-oxadiazol-2-yl)morpholine]
